For data set [1], the system named is SMN2 minigene mRNA (SMN2-A minigene construct). Put plainly: SMN2 minigene mRNA splicing RT-qPCR assay in cultured cells. The data set is classed as cell-based, human. The conditions noted are these: Homo sapiens, HEK293-H; HEK293H cells stably transfected with SMN2-A minigene, 24 hours, 7-point concentration data; concentration giving 1.5-fold SMN2 full length mRNA relative to vehicle-treated cells; read-out: EC1.5x for production of full length SMN2 mRNA. Summed up: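 Full-length SMN2 minigene mRNA, measured by exon 7/luciferase-specific RT-qPCR that excludes endogenous SMN1/SMN2, was normalized to GAPDH and expressed relative to vehicle-treated cells via modified ΔΔCt. Stably transfected HEK293H cells received compound (7-point, 3.16-fold series, duplicates) for 24 h at 37 °C.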

Another data set has as its system Smn protein. Put plainly: Smn protein assay (HTRF) in cultured cells (SMA patient fibroblasts GM03813). The format is cell-based, human. The conditions noted are these: 48 hours; for maximum fold (Fold) increase of Smn protein: SMA patient fibroblast cells, 7-point concentration curve, relative to vehicle control; for EC1.5x for Smn protein expression: SMA patient fibroblast cells (GM03813), HTRF, 7-point concentration data, concentration producing 1.5 times Smn protein vs DMSO vehicle control. A digest of the protocol:
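Smn level is expressed as fold over vehicle, from blank-corrected ΔF of the 665/620 nm HTRF ratio. Readout used anti-SMN d2 and kryptate antibodies on RIPA lysates. GM03813 SMA fibroblasts had 48 h exposure at 37° C to seven 3.16-fold compound dilutions, run in triplicate.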
In general terms: TR-FRET usually uses a lanthanide donor and a delayed reading to cut background.

As usually defined, the melting point is the temperature, or range, at which the solid turns liquid.

Bounds are passed on as bounds.

Regarding `CCN1CCN(c2ccc3cc(-c4cn5ccc(C)cc5n4)c(=O)oc3n2)CC1` [Cpd 131, 7-(4-ethylpiperazin-1-yl)-3-(7-methylimidazo[1,2-a]pyridin-2-yl)-2H-pyrano[2,3-b]pyridin-2-one], the melting point fell in the range of 258 to 261 °C. The EC (1.5-fold) in data set [1] lay within 0.1 to 0.3 µM. Moreover, the “maximum fold (Fold) increase of Smn protein” value (from here on “maximum fold (Fold) increase”) in the data set with Smn protein is “*** (a fold increase between >1.35 and ≦1.5 is indicated by three stars (***))”.
In turn, `Cc1ccc2nc(-c3cc4cnc(N5CCN(C)CC5)cc4oc3=O)cn2c1` [Cpd 34, 3-(6-methylimidazo[1,2-a]pyridin-2-yl)-7-(4-methylpiperazin-1-yl)-2H-pyrano[3,2-c]pyridin-2-one] displayed a melting point of 264 to 268 °C. Also, the EC (1.5-fold) in data set [1] lay within 1 to 3 µM. For the same compound, the “maximum fold (Fold) increase” value in the data set with Smn protein is “*** (a fold increase between >1.35 and ≦1.5 is indicated by three stars (***))”.
Consider `CCN1CCN(c2ccc3cc(-c4cn5cc(C)cc(F)c5n4)c(=O)oc3n2)C[C@@H]1C` [Cpd 137, 7-[(3S)-4-ethyl-3-methylpiperazin-1-yl]-3-(8-fluoro-6-methylimidazo[1,2-a]pyridin-2-yl)-2H-pyrano[2,3-b]pyridin-2-one], for which the melting point lay in the range of 239 to 243 °C. Besides, in data set [1], the EC (1.5-fold) was ≤ 0.1 µM. Also, in the data set with Smn protein, the “EC1.5x for Smn protein expression” value is “*** (an EC1.5× between >0.3 μM and ≦1 μM is indicated by three stars (***))”; the “maximum fold (Fold) increase” value is “**** (a fold increase between >1.5 and ≦1.65 is indicated by four stars (****))”.
On to `Cl.O=c1oc2nc(N3CCCNCC3)ccc2cc1-c1nc2ccccc2o1` [Cpd 52, 3-(1,3-benzoxazol-2-yl)-7-(1,4-diazepan-1-yl)-2H-pyrano[2,3-b]pyridin-2-one hydrochloride], for which the melting point was 243 to 245 °C. Moreover, the EC (1.5-fold) in data set [1] lay in the range of 3 to 30 µM. In addition, the “maximum fold (Fold) increase” value in the data set on Smn protein is “* (A maximum fold increase ≦1.2 is indicated by one star (*))”.
For `CCCN1CCN(c2ccc3cc(-c4nc5ccccc5s4)c(=O)oc3n2)CC1` [Cpd 18, 3-(1,3-benzothiazol-2-yl)-7-(4-propylpiperazin-1-yl)-2H-pyrano[2,3-b]pyridin-2-one] the same measures were 247 to 250 °C, 1 to 3 µM and “* (A maximum fold increase ≦1.2 is indicated by one star (*))”.
As to `C[C@@H]1CN(c2ccc3cc(-c4cn5cccc(F)c5n4)c(=O)oc3n2)C[C@H](C)N1C` [Cpd 119, 3-(8-fluoroimidazo[1,2-a]pyridin-2-yl)-7-[(3R,5 S)-3,4,5-trimethylpiperazin-1-yl]-2H-pyrano[2,3-b]pyridin-2-one], the melting point was in the range of 242 to 245 °C. In addition, the EC (1.5-fold) in data set [1] is ≤ 0.1 µM. Besides, in the data set on Smn protein, the “EC1.5x for Smn protein expression” value is “**** (an EC1.5×≦0.3 μM is indicated by four stars (****))”; the “maximum fold (Fold) increase” value is “**** (a fold increase between >1.5 and ≦1.65 is indicated by four stars (****))”.
Consider `Cc1ccn2cc(-c3cc4ccc(N5CCCN(C)CC5)nc4oc3=O)nc2c1` [Cpd 115, 7-(4-methyl-1,4-diazepan-1-yl)-3-(7-methylimidazo[1,2-a]pyridin-2-yl)-2H-pyrano[2,3-b]pyridin-2-one], for which the melting point was in the range of 241 to 243 °C. Besides, the EC (1.5-fold) in data set [1] is ≤ 0.1 µM. Besides, the “maximum fold (Fold) increase” value with Smn protein is “*** (a fold increase between >1.35 and ≦1.5 is indicated by three stars (***))”.
Take `CCN1CCN(c2ccc3cc(-c4cn5cccc(Cl)c5n4)c(=O)oc3n2)CC1` [Cpd 133, 3-(8-chloroimidazo[1,2-a]pyridin-2-yl)-7-(4-ethylpiperazin-1-yl)-2H-pyrano[2,3-b]pyridin-2-one]: the melting point fell in the range of 218 to 221 °C. Also, the EC (1.5-fold) in data set [1] was ≤ 0.1 µM. In the data set with Smn protein, the “EC1.5x for Smn protein expression” value is “*** (an EC1.5× between >0.3 μM and ≦1 μM is indicated by three stars (***))”; the “maximum fold (Fold) increase” value is “*** (a fold increase between >1.35 and ≦1.5 is indicated by three stars (***))”.
Regarding `C[C@@H]1CN[C@@H](C)CN1c1ccc2cc(-c3cn4cccc(F)c4n3)c(=O)oc2n1` [Cpd 92, 7-[(2R,5S)-2,5-dimethylpiperazin-1-yl]-3-(8-fluoroimidazo[1,2-a]pyridin-2-yl)-2H-pyrano[2,3-b]pyridin-2-one], the melting point lay within 210 to 212 °C. The EC (1.5-fold) in data set [1] was ≤ 0.1 µM. Moreover, in the data set on Smn protein, the “EC1.5x for Smn protein expression” value is on record as “**** (an EC1.5×≦0.3 μM is indicated by four stars (****))”; the “maximum fold (Fold) increase” value was “**** (a fold increase between >1.5 and ≦1.65 is indicated by four stars (****))”.
The compound `C[C@@H]1CN(c2ccc3cc(-c4cn5cccnc5n4)c(=O)oc3n2)C[C@H](C)N1` [Cpd 78, 7-[(3R,5S)-3,5-dimethylpiperazin-1-yl]-3-(imidazo[1,2-a]pyrimidin-2-yl)-2H-pyrano[2,3-b]pyridin-2-one] registered a melting point of 255 to 258 °C. Also, the EC (1.5-fold) in data set [1] lay within 0.1 to 0.3 µM. Further, in the data set on Smn protein, the “EC1.5x for Smn protein expression” value is recorded as “**** (an EC1.5×≦0.3 μM is indicated by four stars (****))” and the “maximum fold (Fold) increase” value is “***** (a fold increase >1.65 is indicated by five stars (*****))”.
In the case of `CCN1CCCN(c2ccc3cc(-c4cn5cccc(Cl)c5n4)c(=O)oc3n2)CC1` [Cpd 141, 3-(8-chloroimidazo[1,2-a]pyridin-2-yl)-7-(4-ethyl-1,4-diazepan-1-yl)-2H-pyrano[2,3-b]pyridin-2-one], the melting point is 201 to 204 °C. In data set [1], the EC (1.5-fold) is ≤ 0.1 µM. Further, in the data set on Smn protein, the “EC1.5x for Smn protein expression” value is “**** (an EC1.5×≦0.3 μM is indicated by four stars (****))”; the “maximum fold (Fold) increase” value is “**** (a fold increase between >1.5 and ≦1.65 is indicated by four stars (****))”.
The compound `CCN1CCCN(c2ccc3cc(-c4cn5cccnc5n4)c(=O)oc3n2)CC1` [Cpd 126, 7-(4-ethyl-1,4-diazepan-1-yl)-3-(imidazo[1,2-a]pyrimidin-2-yl)-2H-pyrano[2,3-b]pyridin-2-one] returned a melting point of 271 to 273 °C. For the same compound, the EC (1.5-fold) in data set [1] lay in the range of 0.1 to 0.3 µM. Also, the “maximum fold (Fold) increase” value in the data set on Smn protein was “*** (a fold increase between >1.35 and ≦1.5 is indicated by three stars (***))”.
Compound `C[C@@H]1CN(C)[C@@H](C)CN1c1ccc2cc(-c3cn4cccc(F)c4n3)c(=O)oc2n1` [Cpd 97, 3-(8-fluoroimidazo[1,2-a]pyridin-2-yl)-7-[(2R,5S)-2,4,5-trimethylpiperazin-1-yl]-2H-pyrano[2,3-b]pyridin-2-one] showed a melting point of 194 to 197 °C. Moreover, the EC (1.5-fold) in data set [1] fell in the range of 0.1 to 0.3 µM. In addition, in the data set on Smn protein, the “EC1.5x for Smn protein expression” value was “** (an EC1.5× between >1 and ≦3 μM is indicated by two stars (**))”; the “maximum fold (Fold) increase” value is “**** (a fold increase between >1.5 and ≦1.65 is indicated by four stars (****))”.
On to `CCN1CCN(c2ccc3cc(-c4cn5cccc(Cl)c5n4)c(=O)oc3n2)C[C@@H]1C` [Cpd 145, 3-(8-chloroimidazo[1,2-a]pyridin-2-yl)-7-[(3S)-4-ethyl-3-methylpiperazin-1-yl]-2H-pyrano[2,3-b]pyridin-2-one], for which the melting point lay within 196 to 199 °C. Also, the EC (1.5-fold) in data set [1] was ≤ 0.1 µM. In the data set with Smn protein, the “EC1.5x for Smn protein expression” value was “**** (an EC1.5×≦0.3 μM is indicated by four stars (****))”; the “maximum fold (Fold) increase” value was “**** (a fold increase between >1.5 and ≦1.65 is indicated by four stars (****))”.
Compound `C[C@H]1CN(c2ccc3cc(-c4cn5ccccc5n4)c(=O)oc3n2)CCN1C` [Cpd 81, 7-[(3S)-3,4-dimethylpiperazin-1-yl]-3-(imidazo[1,2-a]pyridin-2-yl)-2H-pyrano[2,3-b]pyridin-2-one] returned a melting point of 213 to 216 °C. Further, the EC (1.5-fold) in data set [1] lay in the range of 0.1 to 0.3 µM. In the data set on Smn protein, the “EC1.5x for Smn protein expression” value is reported as “**** (an EC1.5×≦0.3 μM is indicated by four stars (****))” and the “maximum fold (Fold) increase” value was “***** (a fold increase >1.65 is indicated by five stars (*****))”.
`CN1CCN(c2ccc3cc(-c4cn5ccccc5n4)c(=O)oc3n2)CC1` [Cpd 38, 3-(imidazo[1,2-a]pyridin-2-yl)-7-(4-methylpiperazin-1-yl)-2H-pyrano[2,3-b]pyridin-2-one] registered a melting point of 243 to 246 °C. In addition, the EC (1.5-fold) in data set [1] fell in the range of 0.1 to 0.3 µM. In the data set with Smn protein, the “EC1.5x for Smn protein expression” value was “*** (an EC1.5× between >0.3 μM and ≦1 μM is indicated by three stars (***))”; the “maximum fold (Fold) increase” value is given as “***** (a fold increase >1.65 is indicated by five stars (*****))”.
Regarding `CN1CCCN(c2ccc3cc(-c4cn5ccccc5n4)c(=O)oc3n2)CC1` [Cpd 48, 3-(imidazo[1,2-a]pyridin-2-yl)-7-(4-methyl-1,4-diazepan-1-yl)-2H-pyrano[2,3-b]pyridin-2-one], the melting point lay in the range of 271 to 274 °C. In addition, the EC (1.5-fold) in data set [1] lay in the range of 0.1 to 0.3 µM. For the same compound, in the data set on Smn protein, the “EC1.5x for Smn protein expression” value was “*** (an EC1.5× between >0.3 μM and ≦1 μM is indicated by three stars (***))”; the “maximum fold (Fold) increase” value was “**** (a fold increase between >1.5 and ≦1.65 is indicated by four stars (****))”.
Compound `C[C@@H]1CN[C@@H](C)CN1c1ccc2cc(-c3cn4cccc(Cl)c4n3)c(=O)oc2n1` [Cpd 94, 3-(8-chloroimidazo[1,2-a]pyridin-2-yl)-7-[(2R,5S)-2,5-dimethylpiperazin-1-yl]-2H-pyrano[2,3-b]pyridin-2-one] came in with a melting point of 172 to 175 °C. Besides, the EC (1.5-fold) in data set [1] is ≤ 0.1 µM. In the data set on Smn protein, the “EC1.5x for Smn protein expression” value is listed as “**** (an EC1.5×≦0.3 μM is indicated by four stars (****))”; the “maximum fold (Fold) increase” value is “**** (a fold increase between >1.5 and ≦1.65 is indicated by four stars (****))”.

The values are drawn from patent US9371336B2, “Compounds for treating spinal muscular atrophy” (PTC Therapeutics Inc., priority 2012, dated 2016).
